Laboratory results published in BindingDB's records for patent US12565497 (Hoffmann-La Roche, 2026).
pIC50: −log10 of the molar value.

The compounds below were run against S-adenosylmethionine synthase isoform type-2 (Homo sapiens, UniProt P31153) (assay: Determination of Mat2A Activity).
Experimental: Measurement of Mat2A inhibition is performed in 384 well format absorbance-based assay. Recombinant human Mat2a (12.5 nM) and serial diluted compounds in DMSO (range of concentrations from 10 μM to 508 pM) or controls (DMSO) are incubated for 15 minutes at room temperature (RT) in assay buffer containing 50 mM HEPES pH 7.5, 50 mM KCl, 50 mM MgCl2, 0.01%Tween 20 and 10 mM DTT. The reaction is initiated by the addition of the combined substrates ATP and Methionine, each at a final concentration of 100 μM. Final assay condition are 12.5 nM Mat2A, 100 μM ATP and Methionine Substrates and 2% DMSO. After 120 minutes of incubation at RT, the reaction is stopped by the addition of Biomol Green. The absorbance signal is measured at λ=635 nm with a multiplate reader (BMG Pherastar reader or equivalent) after 30 min of equilibration at RT.

S-adenosylmethionine synthase isoform type-2, sequence (P31153 whole entry, canonical isoform): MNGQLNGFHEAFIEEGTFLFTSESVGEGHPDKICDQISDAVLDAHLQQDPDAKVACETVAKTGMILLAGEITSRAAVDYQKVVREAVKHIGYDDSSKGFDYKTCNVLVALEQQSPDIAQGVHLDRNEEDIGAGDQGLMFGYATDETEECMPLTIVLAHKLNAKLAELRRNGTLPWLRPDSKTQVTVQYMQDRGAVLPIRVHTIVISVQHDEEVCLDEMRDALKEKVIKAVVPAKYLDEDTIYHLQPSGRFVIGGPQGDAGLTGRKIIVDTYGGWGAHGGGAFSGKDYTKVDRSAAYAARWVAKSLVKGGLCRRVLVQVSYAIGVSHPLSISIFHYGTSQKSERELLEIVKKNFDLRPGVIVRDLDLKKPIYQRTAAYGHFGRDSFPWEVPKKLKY

| Structure (SMILES) | pIC50 |
| --- | --- |
| CCS(=O)(=O)c1ccc(-c2nccc3[nH]nc(C4CC4)c23)cc1C [US12565497, Example 20] | 7.82 |
| Cc1cc(-c2c(S(C)(=O)=O)ccc3[nH]nc(OC(F)F)c23)ccc1S(C)(=O)=O [US12565497, Example 49] | > 7.89 |
| Cc1cc(-c2c(C(=O)NC3COC3)ncc3[nH]nc(C4CC4)c23)ccc1S(C)(=O)=O [US12565497, Example 84] | > 7.89 |

Now from value to compound:

| pIC50 | Structure (SMILES) |
| --- | --- |
| > 7.89 | Cc1cc(-c2c(C(=O)NC3CC3)ncc3[nH]nc(C4CC4)c23)ccc1S(C)(=O)=O [US12565497, Example 86] |
| > 7.89 | COCCNC(=O)c1ncc2[nH]nc(OC(F)F)c2c1-c1ccc(S(=O)(=O)C(F)F)c(C)c1 [US12565497, Example 109] |
| 7.05 | Cc1cc(-c2c(S(C)(=N)=O)ccc3[nH]nc(C4CC4)c23)ccc1S(C)(=O)=O (configuration not stated) [US12565497, Example 112] |
| > 7.89 | Cc1cc(-c2c(S(C)(=O)=O)ccc3[nH]nc(OC(F)F)c23)ccc1S(=O)(=O)C(F)F [US12565497, Example 117] |
